Assay results reported in patent publication US20230390322A1, “HIGH CONCENTRATION METHYLCOBALAMIN OR COMBINATION OF METHYL- AND HYDROXY-COBALAMIN FOR THE TREATMENT OF COBALAMIN C DEFICIENCY DISORDERS” (THE U.S.A., as represented by the Secretary, Department of …, priority 2020, published 2023).
Entries after “also recorded” stand apart in the source; their conditions may differ.

What was measured:
Mmachc^de13/de13 mice [1] = experiment: Survival of treated Mmachc^de13/de13 mutant mice; assay type: in vivo, mouse; details: for median survival: Mmachc^de13/de13 mutants, pregnant dams treated weekly (1 mg) throughout gestation and weaning (prenatal treatment); for mutants alive at 100 days: prenatal treatment
Method: (§1) Survival and phenotype in Mmachc mice: Mendelian ratios at birth, survival, and relative weight: To determine survival, litters were assessed daily after birth and dead pups were noted, removed, and genotyped when tissue was available. Age at time of death was recorded. Weights were measured monthly and the weight of mutants relative to average weight of control littermates was calculated.
(§2) Cobalamin Treatment: OHCbl and MeCbl were obtained from College Pharmacy (Colorado Spring, CO) or prepared at 25 mg/ml concentration and subsequently diluted with 0.9% saline solution to a working solution of 5 mg/ml. OHCbl or MeCbl was delivered by intraperitoneal injections for pups ages P0-P14 and subcutaneous injections for mice post weaning. For in utero treatment studies, pregnant dams were treated with 1 mg/week (100 mg/kg) via subcutaneous injections throughout pregnancy and weaning. For chronic therapy 50 μg/kg dosing was used.
(§3) AAV Vector Design, Production, and Delivery: Two adeno associated viral vectors were designed: AAVrh10-Mmachc, containing the murine Mmachc coding sequence packaged into a rh10 serotype capsid, and AAV9-coMMACHC, containing a codon optimized human MMACHC coding sequence packaged into an AAV9 serotype capsid. AAVs were produced as described previously. AAV viral vectors were delivered via intrahepatic injection at a dose of 1×10^11 GC per pup in the neonatal period (P0-2). ddPCR was conducted using a CMV/CBA probe spanning the promoter/enhancer, reference albumin Dissection of Pregnant Dams: Pregnant dams were either untreated, treated with OHCbl, MeCbl or the combination (1 mg per week) during pregnancy as described and sacrificed at E18.5. Embryos were photographed, tails were collected for genotyping, and the remaining tissue was collected and flash frozen. Embryo weights were measured and the weight of mutants relative to average weight of control littermates was calculated. Crown to rump length of each embryo was also determined using ImageJ software.
(§4) Statistics: Graphpad Prism Software was used for statistical analysis. All data are presented as mean±SD and significance is indicated as follows: p<0.05(*), p<0.01(**), p<0.001 (***), and p<0.0001(****). Kaplan-Meier survival curve significance was determined using the Log-Rank Mantel-Cox test, genotype distribution significance was assessed using the chi-square test, and all other statistics were calculated using the unpaired t-test.

Mmachc^de12/de12 mice [2] = experiment: Survival of treated Mmachc^de12/de12 mutant mice; assay type: in vivo, mouse; details: prenatal treatment; for median survival: Mmachc^de12/de12 mutants, OHCbl 1 mg, MeCbl 1 mg or 0.5 mg each weekly
Method: as §1, §2, §4

Mmachc^del2 mouse line = experiment: Genotype distribution at birth (P0-2), Mmachc^del2 litters; assay type: in vivo; details: mice at birth; prenatal treatment
Method: (§5) Genotyping and breeding scheme: Tail biopsies were performed routinely at 10-15 days of life or in rare cases in the first day of life and DNA was extracted using the Qiagen DNEASY® Spin Kit or the MYTAQ® Extract-PCR Kit. Mmachc genotype was determined by a fluorescent PCR method described previously^22 or by Droplet Digital PCR (ddPCR) Mutation Detection Assay (Bio-Rad). ddPCR genotyping was performed by mixing 2 ul of 1:10 diluted DNA, 1.1 ul probe-primer mix, and 7.9 ul water. The primer-probe mix contained the wild-type/mutant primer and fluorescent FAM and HEX probes targeting the mutant and wild-type alleles, respectively. Sample droplets were generated by the QX200 Droplet Digital PCR system, PCR amplified in a thermocycler, and DNA quantified by droplet fluorescence. Mmachc homozygous mutant mice and their heterozygote or wild type control littermates were generated from heterozygous parental crosses unless otherwise noted. In order to eliminate the Pdeb(rdl) mutation present in the FVB/N genetic background which causes retinal degeneration, Mmachc carrier mice were crossed to C57BL/6J mice. Subsequent generations of Mmachc carriers were genotyped for the Pdeb(rdl) mutation using a published PCR method (Gimenez and Montouliu Lab Anim 35, 153-6 (2001)), and mice homozygous for the functional Pdeb(rdl) allele were selected for further breeding. Mice were fed regular or high fat chow and weaned at P21-28.
as §1, §2, §4

Mmachc^del3 mouse line [3] = experiment: Genotype distribution at birth (P0-2), Mmachc^del3 litters; assay type: in vivo; details: mice at birth; prenatal treatment
Method: as §5, §1, §2, §4

Mmachc^de12/de12 embryos = experiment: E18.5 embryo weight and pathology, Mmachc^de12/de12; assay type: in vivo, mouse; details: prenatal treatment
Method: as §3

Mmachc^de13/de13 mice [4] = experiment: Postnatal weight relative to control littermates, Mmachc^de13/de13; assay type: in vivo, mouse
Method: as §1

Mmachc^de12/de12 mice [5] = experiment: Postnatal weight, Mmachc^de12/de12; assay type: in vivo, mouse; details: prenatal treatment
Method: as §1

Mmachc^de13/de13 mice [6] = experiment: Plasma metabolite measurements (GC-MS), Mmachc^de13/de13; assay type: in vivo, mouse; details: for plasma cystathionine: P0-P30; for plasma methylmalonic acid: P0-P30 (two weeks)
Method: Metabolite measurements: Blood samples were collected in heparinized capillary tubes and centrifuged at 2000 rpm for 10 min at 4C. Plasma was diluted 1:40 in water for methylmalonic acid and methylcitrate measurements and undiluted plasma was used for homocysteine and cystathionine measurements. Plasma concentrations were determined by gas chromatography-mass spectrometry (GC-MS).

Mmachc^de13/de13 mice [7] = experiment: Pigmentation / clinical appearance, Mmachc^de13/de13; assay type: in vivo, mouse
Mmachc^de12/de12 mice [8] = experiment: Pigmentation / clinical appearance, Mmachc^de12/de12; assay type: in vivo, mouse; details: prenatal treatment
Mmachc^del3 mouse line [9] = experiment: Genotype distribution at E18.5, Mmachc^del3 litters; assay type: in vivo; details: mice at E18.5; prenatal treatment
Method: as §3, §4

Mmachc^de13/de13 embryos = experiment: E18.5 embryo growth parameters, Mmachc^de13/de13; assay type: in vivo, mouse
Method: as §3

Mmachc^de13/de13 mice [10] = experiment: Retinal histology and electroretinography, Mmachc^de13/de13; assay type: in vivo, mouse
From the text: The severe neonatal lethality of this model in combination with the fact that the mouse retina develops until ˜P21 made it challenging to study retinal pathology in untreated mice.

cblC patients = experiment: Natural history cohort of cblC patients (NCT00078078); assay type: in vivo, human
Method: Extensive data was collected on a large natural history cohort of 61 patients studied every 2-3 years over 15 yrs to evaluate the impact of different approaches to clinical management/cobalamin therapy on disease outcomes (ClinicalTrial.gov ID: NCT00078078). […] Six patients (ages 2.2-3.8 years), who received higher doses of hydroxocobalamin (5-20 mg/day or 0.3-1.4 mg/kg/d) starting between 6 mo-1 yr, presented with variable macular degeneration and improved average FSIQ and ABC scores in the normal range (FSIQ 91.6±5.3; ABC 88.2±10.7), compared to our historic scores in young children <10 y of age on <0.3 mg/kg/day (FSIQ 70.69±19.11, ABC 79.83±17.42).

[11] = 7-13 months, both prenatal OHCbl and prenatal OHCbl+weekly groups
[12] = 7-13 months, prenatal+postnatal OHCbl
[13] = six patients ages 2.2-3.8 years, 5-20 mg/day or 0.3-1.4 mg/kg/d starting between 6 mo-1 yr
[14] = young children <10 y of age on <0.3 mg/kg/day

SMILES: C/C1=C2/[N-][C@H]([C@H](CC(N)=O)[C@@]2(C)CCC(=O)NC[C@H](C)OP(=O)([O-])O[C@H]2[C@@H](O)[C@@H](n3cnc4cc(C)c(C)cc43)O[C@@H]2CO)[C@]2(C)N=C(/C(C)=C3N=C(/C=C4N=C1[C@@H](CCC(N)=O)C\4(C)C)[C@@H](CCC(N)=O)[C@]\3(C)CC(N)=O)[C@@H](CCC(N)=O)[C@]2(C)CC(N)=O.[CH3-].[Co+3] [MeCbl, methylcobalamin]
- median survival (Mmachc^de13/de13 mice [1]): 144 days
- mutants alive at 100 days (Mmachc^de13/de13 mice [1]): 100%
- median survival (Mmachc^de12/de12 mice [2]): 78 days
- mutants survived beyond 30 days (Mmachc^de12/de12 mice [2]): 100%
- genotype distribution +/+ (%) (Mmachc^del2 mouse line): 18%
- genotype distribution +/+ n (Mmachc^del2 mouse line): 14
- genotype distribution +/− (%) (Mmachc^del2 mouse line): 53%
- genotype distribution +/− n (Mmachc^del2 mouse line): 41
- genotype distribution −/− (%) (Mmachc^del2 mouse line): 29%
- genotype distribution −/− n (Mmachc^del2 mouse line): 22
- genotype distribution +/+ (%) (Mmachc^del3 mouse line [3]): 31%
- genotype distribution +/+ n (Mmachc^del3 mouse line [3]): 38
- genotype distribution +/− (%) (Mmachc^del3 mouse line [3]): 63%
- genotype distribution +/− n (Mmachc^del3 mouse line [3]): 76
- genotype distribution −/− (%) (Mmachc^del3 mouse line [3]): 6%
- genotype distribution −/− n (Mmachc^del3 mouse line [3]): 7
- weight of E18.5 embryos normalized to control values (Mmachc^de12/de12 embryos; weekly subcutaneous injection of dams, untreated 76.4%): 89.4 % of controls
- pathology at E18.5 (Mmachc^de12/de12 embryos; H&E): ameliorated the pathology in the lungs, liver and brown fat
- size relative to littermates at 3 months (Mmachc^de13/de13 mice [4]; prenatal treatment): 48%
- growth at 1 month (Mmachc^de12/de12 mice [5]): appeared growth impaired but this was not significant at 1 month
- plasma cystathionine (Mmachc^de13/de13 mice [6]; prenatal treatment): reduced cystathionine to control levels; also recorded: decreased to control levels
- homocysteine levels (Mmachc^de13/de13 mice [6]; prenatal treatment): did not improve
- pigmentation of fur, ears and tails (Mmachc^de13/de13 mice [7]; prenatal treatment): minimal pigmentation differences
- pigmentation of the ears (Mmachc^de12/de12 mice [8]): improvement in pigmentation of the ears

SMILES: C/C1=C2/[N-][C@H]([C@H](CC(N)=O)[C@@]2(C)CCC(=O)NC[C@@H](C)OP(=O)([O-])O[C@H]2[C@@H](O)[C@@H](n3cnc4cc(C)c(C)cc43)O[C@@H]2CO)[C@]2(C)N=C(/C(C)=C3N=C(/C=C4N=C1[C@@H](CCC(N)=O)C\4(C)C)[C@@H](CCC(N)=O)[C@]\3(C)CC(N)=O)[C@@H](CCC(N)=O)[C@]2(C)CC(N)=O.[Co+3].[OH-] [OHCbl, hydroxocobalamin]
- median survival (Mmachc^de13/de13 mice [1]): 109 days
- mutants alive at 100 days (Mmachc^de13/de13 mice [1]): 50%
- longest surviving (Mmachc^de13/de13 mice [1]; prenatal+weekly OHCbl): > 1 year
- median survival (Mmachc^de12/de12 mice [2]): 25 days
- genotype distribution +/+ (%) (Mmachc^del2 mouse line): 29%
- genotype distribution +/+ n (Mmachc^del2 mouse line): 76
- genotype distribution +/− (%) (Mmachc^del2 mouse line): 66%
- genotype distribution +/− n (Mmachc^del2 mouse line): 171
- genotype distribution −/− (%) (Mmachc^del2 mouse line): 5%
- genotype distribution −/− n (Mmachc^del2 mouse line): 13
- genotype distribution +/+ (%) (Mmachc^del3 mouse line [3]): 30%
- genotype distribution +/+ n (Mmachc^del3 mouse line [3]): 105
- genotype distribution +/− (%) (Mmachc^del3 mouse line [3]): 54%
- genotype distribution +/− n (Mmachc^del3 mouse line [3]): 192
- genotype distribution −/− (%) (Mmachc^del3 mouse line [3]): 16%
- genotype distribution −/− n (Mmachc^del3 mouse line [3]): 57
- genotype distribution +/+ (%) (Mmachc^del3 mouse line [9]): (23) %
- genotype distribution +/+ n (Mmachc^del3 mouse line [9]): 14
- genotype distribution +/− (%) (Mmachc^del3 mouse line [9]): (46) %
- genotype distribution +/− n (Mmachc^del3 mouse line [9]): 28
- genotype distribution −/− (%) (Mmachc^del3 mouse line [9]): (31) %
- genotype distribution −/− n (Mmachc^del3 mouse line [9]): 19
- embryo weight normalized to control littermates (Mmachc^de13/de13 embryos; de13/de13, prenatal treatment, n=11): 0.8204±0.03641
- anterioposterior abdominal dimension (APD) (Mmachc^de13/de13 embryos; prenatal treatment): did not improved
- crown rump length (IUGR) (Mmachc^de13/de13 embryos; prenatal treatment): did not rescue the IUGR
- relative weight of mutant mice at two weeks (Mmachc^de13/de13 mice [4]; prenatal OHCbl): improved the weight vs untreated
- relative weight of mutant mice at two weeks (Mmachc^de13/de13 mice [4]; prenatal OHCbl+weekly): improved the weight vs untreated
- homocysteine (Mmachc^de13/de13 mice [6]; [11]): remained elevated vs controls but was lower
- methylmalonic acid (Mmachc^de13/de13 mice [6]; [11]): remained elevated vs controls and untreated mutants
- methylmalonic acid levels in the blood [MMA] (Mmachc^de13/de13 mice [6]; [12]): > 1500 µM
- total homocysteine levels (tHCYS) (Mmachc^de13/de13 mice [6]; [12]): 31 µM
- plasma methylmalonic acid (Mmachc^de13/de13 mice [6]; prenatal treatment only): no decrease
- plasma methylmalonic acid (Mmachc^de13/de13 mice [6]; weekly (chronic) OHCbl): decreased
- plasma cystathionine (Mmachc^de13/de13 mice [6]; prenatal treatment): elevated compared to untreated mutants; also recorded: increased
- homocysteine levels (Mmachc^de13/de13 mice [6]; prenatal and weekly treatment): did not improve
- homocysteine levels (Mmachc^de13/de13 mice [6]; prenatal treatment): did not improve
- pigmentation of ears and tail (Mmachc^de13/de13 mice [7]; long term (prenatal+weekly) treatment): decreased hypopigmentation
- retinal histology (Mmachc^de13/de13 mice [10]; 6-9 months of age): within normal limits
- electroretinography (ERG) (Mmachc^de13/de13 mice [10]; prenatal OHCbl/AAV9 at 9 months, OHCbl at 6 months): diminished scotopic B waves
- adverse events (cblC patients; adults and children on 25 mg/day monitored 2-8 years): no significant adverse events
- ABC score (cblC patients; single patient, 5 mg): 79
- eye exam (cblC patients; single patient, 5 mg): normal
- average ABC score (cblC patients; [13]): 88.2±10.7
- average FSIQ score (cblC patients; [13]): 91.6±5.3
- ABC score (historic) (cblC patients; [14]): 79.83±17.42
- FSIQ score (historic) (cblC patients; [14]): 70.69±19.11
